The results in this text go back to patent US20250110130A1, “EX VIVO PROTEASE ACTIVATION AND DETECTION” (SunBird Bio, Inc., priority 2021, published 2025).

For assay [1], the system named is protease activity sensed by Probe #102 (cathepsin L, CTSL) in K2 EDTA plasma. Put plainly: Protease inhibitor profiling of Probe #102 cleavage in NASH and healthy plasma. As to conditions: for effect of inhibitor on signal, in words: Probe #102, NASH and healthy plasma.
Procedure: For this experiment, all plasma samples were prepared individually and diluted 1/10e in PBS with inhibitor added directly to the samples. Inhibitor was prepared at 15× concentration to final. Substrates were diluted in DI water at 18 uM, such that the final concentration on the plate would be 6 uM. All samples were prepared such that their last dilution on the plate would not affect the desired final concentration. 10 ul of each individual sample was pipetted into their corresponding wells, and the plate was then spun down in the centrifuge at 1500 RPM for 30 seconds to coat the bottom of each well with the sample. 5 ul of the 18 uM substrate solution was pipetted into each well being used on a 384 well plate, and then the plate was spun down in the centrifuge at 1500 rpm for 30 seconds. The plate was placed immediately in the plate reader at 37° C. for a 30-minute-long fluorescence kinetic read at 485/535 extended gain.
To assess the proteolytic cleavage pattern of Probe #102, samples were tested using a pool of broad inhibitors for serine, cysteine, threonine, MMP and aspartic protease family members (broad inhibitor) to assess general protease activity, AEBSF for serine proteases, E64 for cysteine proteases, CTSi for broad cathepsin inhibition of cathepsins L, S, K and B, or specific inhibitors for cathepsin K (L00625), for cathepsin L (SID) or cathepsin B (CA074).
The next assay has as its system MMPs in K2 EDTA plasma. Kind of assay: Zinc reactivation of MMPs in human K2 EDTA plasma. In kind it is biochemical. As to conditions: for protease activity recovered by Calcium compared to Zinc: Calcium up to 6 mM vs 1 mM Zinc, plasma. The source says:
In this experiment, MMPs are reactivated in K2 EDTA plasma that has been collected with EDTA. EDTA causes chelation of the […] ion and interferes with the stability of the MMPs and has high MMP inhibition activity in vitro. The goal of zinc addition was to reactivate potential MMPs in solution that have been inhibited due to the addition of K2 EDTA.
To reactivate the MMPs in plasma, the EDTA was completely titrated and bound to the Zinc while the excess zinc in the solution was also used as an activating agent for the MMPs. Zinc chloride (Alfa Aesar) was prepared in ddH2O and fully dissolved. The zinc chloride ([…]) solution was then diluted in an assay buffer designed for MMPs. The plasma samples were prepared in the MMP buffer and the plasma samples were combined with the ZnCl solution in a 3:1 ratio. The mixture was incubated on ice after being combined. While the samples were incubating, the related substrates were prepared for analysis. Substrates used in this experiment were Probes #117, 263, 349, and 417. Samples were added to a substrate of interest once the sample incubation was complete. The mixture was spun, and results were read on a Biotek Synergy H1 at Ex/Em=485/535 using extended dynamic range.

The target in assay [2] is T1, MMP2 (Homo sapiens, UniProt P08253).
T1 sequence (P08253 110-660): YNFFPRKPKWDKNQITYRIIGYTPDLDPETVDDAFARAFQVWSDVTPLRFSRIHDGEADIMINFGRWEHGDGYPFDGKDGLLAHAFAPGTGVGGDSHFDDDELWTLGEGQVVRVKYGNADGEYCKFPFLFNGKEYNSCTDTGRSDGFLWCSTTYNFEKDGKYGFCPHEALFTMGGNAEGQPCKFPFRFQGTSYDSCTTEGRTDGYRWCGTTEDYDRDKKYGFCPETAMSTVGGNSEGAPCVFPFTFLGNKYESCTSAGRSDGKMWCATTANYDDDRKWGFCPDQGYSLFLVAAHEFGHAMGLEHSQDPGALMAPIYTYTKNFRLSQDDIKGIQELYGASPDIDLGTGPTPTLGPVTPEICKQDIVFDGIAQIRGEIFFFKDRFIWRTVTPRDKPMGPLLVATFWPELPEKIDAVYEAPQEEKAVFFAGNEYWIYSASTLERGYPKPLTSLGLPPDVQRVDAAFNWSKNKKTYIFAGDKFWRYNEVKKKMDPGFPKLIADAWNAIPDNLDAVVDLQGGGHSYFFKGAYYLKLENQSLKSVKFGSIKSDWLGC
Kind of assay: Recombinant MMP2 spike-in to human K2 EDTA plasma with Zinc titration. Type of assay: biochemical. Details: host or cells: spiked into human K2 EDTA plasma.

Assay [3] has as its system carboxylesterase 1, phospholipase A2 and lipoprotein lipase. Put plainly: Spiked recombinant enzymes in human plasma with resorufin oleate as substrate. In kind it is biochemical.
In assay [4] the test system is protease (caspase) activity in mouse plasma. Kind of assay: Ex vivo probe assay in plasma of the Jo2 mouse model of fulminant hepatitis. Type of assay: biochemical. As to conditions: mouse plasma 3 hours after Jo2 injection. The protocol: Fulminant hepatitis is induced after injection intraperitoneal of monoclonal antibody anti-CD95 (Jo2, BD biosciences, 4 ug/animal), and mouse plasma samples were collected 3 hours after Jo2 injection.
The comparison with mass spectrometry data also aligns and confirms high concordance with the ex vivo approach, which is reassuring to confirm the existence of a biologically relevant signal.

Assay [5] concerns the target T1, MMP2. Kind of assay: Recombinant protease screen of probes. Type of assay: biochemical. As to conditions: recombinant MMP2, 1 h fluorescence read. The protocol: (§1) To determine different probes' ability to cleave MMPs and/or DPP4, samples were pipetted into each well in a 384 well plate. […] The plate was centrifuged again, and the plate was then placed into the plate reader for a 1 h fluorescence read.

The next assay has as its target T2, MMP20 (Homo sapiens, UniProt O60882).
T2 sequence (O60882 108-483): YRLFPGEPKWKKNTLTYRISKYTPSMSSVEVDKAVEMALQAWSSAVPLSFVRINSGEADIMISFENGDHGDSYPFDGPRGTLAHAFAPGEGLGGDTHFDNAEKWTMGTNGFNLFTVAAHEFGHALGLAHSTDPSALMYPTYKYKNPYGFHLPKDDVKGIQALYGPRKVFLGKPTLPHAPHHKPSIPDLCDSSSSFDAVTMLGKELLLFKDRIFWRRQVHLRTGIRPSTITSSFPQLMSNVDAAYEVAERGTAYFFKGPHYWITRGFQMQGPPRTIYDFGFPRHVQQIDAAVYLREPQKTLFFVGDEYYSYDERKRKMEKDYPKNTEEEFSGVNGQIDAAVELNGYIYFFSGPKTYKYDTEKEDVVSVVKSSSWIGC
Kind of assay: Recombinant protease screen of probes. Type of assay: biochemical. As to conditions: recombinant MMP20, 1 h fluorescence read. The method, then:
as §1

The subject of assay [6] is MMP protease signal in mouse plasma. Kind of assay: Zinc reactivation of MMPs in mouse plasma, healthy vs NASH. In kind it is biochemical. As to conditions: for Fold change ratio, Zinc Buffer: Zinc MMP buffer. An excerpt: To perform this experiment, samples were pipetted into each well of a 384 well plate. […] The plate was kept on ice throughout procedure. […] Then, the place was centrifuged again.
A summary table of the results can be found in Table 4.

For a further assay, the target named is MMP13 (Homo sapiens, UniProt P45452). Put plainly: Recombinant protease screen of probes. In kind it is biochemical. As to conditions: recombinant MMP13, 1 h fluorescence read. The method, then:
as §1

The test system of assay [7] is protease activity in COVID and healthy plasma. Kind of assay: Ex vivo probe assay in COVID and healthy plasma (K2 EDTA and Lithium Heparin). As to conditions: K2 EDTA samples. In kind it is biochemical.
For another assay, the target named is DPP4 (Homo sapiens, UniProt P27487). Kind of assay: Recombinant protease screen of probes. Type of assay: biochemical. As to conditions: recombinant DPP4, 1 h fluorescence read. The method, then: as §1

Non-standard residues stand in square brackets, D forms with d. Primed or numbered codes have the meaning given here. No end group written: not given here. *: point of attachment. CPQ2 = fluorescent quencher, paired with 5-carboxyfluorescein; 5FAM = O=C1OC2(c3ccc(O)cc3Oc3cc(O)ccc32)c2ccc(C(=O)*)cc21; FAM = 5-carboxyfluorescein (fluorescent label); PEG2′ = PEG spacer

Chain of DPP4 (P27487 whole entry, species assumed): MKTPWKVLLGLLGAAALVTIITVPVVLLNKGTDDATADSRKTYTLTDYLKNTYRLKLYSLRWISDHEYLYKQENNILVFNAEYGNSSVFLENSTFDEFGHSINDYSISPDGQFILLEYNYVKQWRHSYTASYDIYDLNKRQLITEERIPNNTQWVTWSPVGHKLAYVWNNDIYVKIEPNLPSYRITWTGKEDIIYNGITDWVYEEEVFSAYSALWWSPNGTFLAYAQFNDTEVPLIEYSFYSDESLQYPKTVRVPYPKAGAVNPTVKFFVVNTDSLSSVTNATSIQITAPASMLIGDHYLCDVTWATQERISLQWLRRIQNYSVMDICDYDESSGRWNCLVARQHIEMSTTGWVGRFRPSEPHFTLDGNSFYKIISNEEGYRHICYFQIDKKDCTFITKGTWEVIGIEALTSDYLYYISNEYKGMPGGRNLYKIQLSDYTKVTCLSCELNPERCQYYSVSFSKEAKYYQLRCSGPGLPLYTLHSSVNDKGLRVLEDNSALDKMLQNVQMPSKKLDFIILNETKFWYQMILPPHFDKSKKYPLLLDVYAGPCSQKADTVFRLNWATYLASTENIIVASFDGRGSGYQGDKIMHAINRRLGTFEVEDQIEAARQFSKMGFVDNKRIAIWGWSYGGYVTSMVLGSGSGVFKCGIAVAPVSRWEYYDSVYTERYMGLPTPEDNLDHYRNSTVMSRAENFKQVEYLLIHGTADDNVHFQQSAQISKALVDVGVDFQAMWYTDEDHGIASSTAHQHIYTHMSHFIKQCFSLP

Regarding `NCCc1ccc(S(=O)(=O)F)cc1` [AEBSF], the “decrease of signal in NASH samples by inhibitor” value in [1] (Probe #102, NASH plasma) is reported as 65%. Besides, the “decrease of signal in healthy samples by inhibitor” value in assay [1] (Probe #102, healthy plasma) is listed as 60%.
For the compound `CCCNC(=O)[C@H]1O[C@@H]1C(=O)N[C@H](C(=O)N1CCC[C@H]1C(=O)O)[C@@H](C)CC` [CA074], the “effect of inhibitor on signal, in words” value in assay [1] is reported as “did not significantly decrease signal”.
On to `[Ca]` [Calcium], for which the figures for the “protease activity recovered by Calcium compared to Zinc” value in the assay on MMPs in K2 EDTA plasma and in the assay with MMPs in K2 EDTA plasma (listed as calcium) were “minimal protease activity is recovered” and “does not show similar activation effects”, respectively.
Regarding `O=C([O-])CN(CCN(CC(=O)O)CC(=O)O)CC(=O)[O-].[K+].[K+]` [K2 EDTA], on MMP2 [2], the “activity of recombinant MMP2 spiked into human K2 EDTA plasma” value was “completely deactivated”.
Turning to `CC(C)C[C@H](NC(=O)[C@H]1O[C@@H]1C(=O)O)C(=O)NCCCCN=C(N)N` [Probe E64, E64], the “effect of inhibitor on signal, in words” value in [1] is “decreased NASH signal significantly”.
Still for that read-out and setting: the result for `CN1CCN(c2nc(-c3ccc(C(=O)NC4(C(=O)NCC#N)CCCCC4)cc3)cs2)CC1` [Probe L006235] reads “did not significantly decrease signal”.
With `[Cl-].[Cl-].[Zn+2]` [Zinc, Zinc chloride], the “optimal Zinc concentration” value with MMPs in K2 EDTA plasma (across all vendors tested, Probe #349) came to 1 mM. The “activity of recombinant MMP2 spiked into human K2 EDTA plasma” value on MMP2 [2] is given as “capable of reviving the MMP2 activity in plasma”.
Turning to `CCCC(=O)O` [butyrate], the “suitability as substrate for detection of enzymes” value in assay [3] is “promising for detection of broad range of enzymes”.
On to “Probe #8: Caspase centric probe (5FAM-GVDVADGK(CPQ2)[PEG2′][dK][dK]GC; also: 5-FAM, CPQ2 quencher, PEG2, D-Lys-D-Lys-GC)”, for which the “contrast between healthy and Jo2 samples” value in assay [4] was “show contrast that is specific and sensitive to the Jo2 model”.
On the same count and under the same terms, the result for “Probe #12: Caspase centric probe (5FAM-GDEVDGK(CPQ2)[PEG2′][dK][dK]GC; also: 5-FAM, CPQ2 quencher, PEG2, D-Lys-D-Lys-GC)” reads “show contrast that is specific and sensitive to the Jo2 model”.
Turning to “Probe #117: probe whose peptide linker is SEQ ID No 117 ({FAM}-GAALHNDGK(CPQ2)[PEG2′][dK][dK]-NH2; also: FAM, CPQ2 quencher, PEG2, D-Lys-D-Lys, amide)”, in the assay with MMP2 [5], the “protease sensed by probe” value is listed as “sensed”. In the assay with MMP20, the “protease sensed by probe” value is “sensed”. In assay [6], the “Fold change ratio, Zinc Buffer” value worked out at 2.11 and the “Fold change ratio, Normal Buffer” value worked out at 1.47.
Take “Probe #263: probe whose peptide linker is SEQ ID No 263 ({FAM}-GQKAAWDGK(CPQ2)-NH2; also: FAM, CPQ2 quencher)”: in the assay with MMP13, the “protease sensed by probe” value is on record as “sensed”. For the same compound, in assay [6], the “Fold change ratio, Zinc Buffer” value is 2.09 and the “Fold change ratio, Normal Buffer” value amounted to 1.7.
For “Probe #409: the SARS CoV2 coronavirus substrate (SARS-COV2 3C protease) (GTSAVLQSGFRKGK; also: 5-FAM, CPQ2 quencher, PEG2-kk-GC)”, the “contrast between COVID and healthy samples” value in assay [7] is “modest contrast”.
For the compound “Probe #411: probe of Table 1; sensed DPP4 (5FAM-GAAFAGK(CPQ2)[PEG2′][dK][dK]GC; also: 5-FAM, CPQ2 quencher, PEG2, D-Lys-D-Lys-GC)”, in the assay with DPP4, the “protease sensed by probe” value is on record as “sensed”. In addition, in [6], the “Fold change ratio, Zinc Buffer” value came out at 2.52 and the “Fold change ratio, Normal Buffer” value came to 1.88.
Take Resorufin oleate: in assay [3], the “suitability as substrate for detection of enzymes” value is listed as “promising for detection of broad range of enzymes”.
